Reference: publication PMC6151700, “Novel FXa Inhibitor Identification through Integration of Ligand- and Structure-Based Approaches” (Molecules : A Journal of Synthetic Chemistry and Natural …, 2017)
Read-outs that look alike come from different tables or passages of the source.

Assays:
human FXa = biological target: T1, human FXa (Homo sapiens, UniProt P00742); test: Inhibition of FXa in vitro (SensoLyte Rh110 Factor Xa Assay Kit, fluorometric); type: biochemical; details: for Emax at 0.01 µM: at 10 nM, read-out: maximal effect of FXa inhibition
T1 construct: purchased Anaspec, Fremont, CA, USA
Procedure: The selected compounds were measured in vitro for their factor Xa inhibition using chromogenic substrates. In a first trial the 30 compounds obtained from the developmental therapeutic program at NCI were dissolved in dimethyl sulfoxide (DMSO) at a concentration of 100 mM and then diluted in DMSO to 100 μM. The enzymatic assay was prepared according to manufacturer’s instructions (SensoLyte® Rh110 Factor Xa Assay Kit *Fluorometric*, Anaspec, Fremont, CA, USA). Inhibition control 1 mM was diluted 1:10 with the prepared buffer 1X obtaining the 0.1 mM inhibition control. The reagents containing compound dilutions, buffer and enzyme were mixed, centrifuged, and incubated for 30 min at 37 °C in 96-well microtiter plates. The enzyme reaction was initiated by adding appropriate substrate (FXa, S-2222). The 96-well plate for fluorescence was prepared with 40 μL of enzyme and 1 μL of each compound. To initiate the enzymatic reaction 50 μL of the factor Xa substrate was added to each well and the plate was read with a fluorescence microplate reader FLx800 (Biotek Inc., Winooski, VT, USA) programmed to read continuously for 30 min at 37 °C, at a wavelength of Ex/Em 490 nm/520 nm. […] The data obtained was analyzed with Prism v.7 (GraphPad Inc., La Jolla, CA, USA). In the second trial, the ten filtered and selected compounds) were prepared to span four different concentrations: 0.1–10 nM. The IC50 was calculated from the mean of triplicates from a dilution series of the compound with Prism v.7 (GraphPad Inc., La Jolla, CA, USA).

human plasma [1] = test: In vitro coagulation assay, activated partial thromboplastin time (aPTT); details: 0.1 to 10 nM
Procedure: (§1) PT and aPTT assays were performed on an ACLTop (Instrumentation Laboratory) coagulation instrument. Recombiplastin 2G and aPTT-SP liquid were used according to standard procedures. Increasing concentrations of inhibitor ranging from 0.1 to 10 nM or solvent were added to human plasma and incubated for 10 min at 37 °C. Clotting times were measured and compared with those from the appropriate control plasma.

human plasma [2] = test: In vitro coagulation assay, prothrombin time (PT); details: up to 10 nM
Procedure: as §1

tumor cell line = details: assayed 53 times, ChEMBL database ref 46, 47; cited from earlier work
[3] = read-out: FXa Activity Inhibition >50% at 1 μM
[4] = read-out: FXa Activity Inhibition >50% at 10 μM

T1 sequence (P00742 235-488 limits assumed): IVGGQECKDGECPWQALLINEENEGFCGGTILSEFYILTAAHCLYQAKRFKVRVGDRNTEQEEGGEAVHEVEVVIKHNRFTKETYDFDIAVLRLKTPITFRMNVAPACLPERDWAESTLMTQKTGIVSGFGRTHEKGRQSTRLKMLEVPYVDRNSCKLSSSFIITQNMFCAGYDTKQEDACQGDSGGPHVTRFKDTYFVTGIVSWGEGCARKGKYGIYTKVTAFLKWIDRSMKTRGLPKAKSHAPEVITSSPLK
T1 sequence (P00742 41-179 partner limits assumed): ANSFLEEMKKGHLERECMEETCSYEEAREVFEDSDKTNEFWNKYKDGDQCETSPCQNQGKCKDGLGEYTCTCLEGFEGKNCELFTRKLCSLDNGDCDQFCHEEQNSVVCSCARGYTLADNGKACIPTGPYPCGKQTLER

O=C(NCc1ccc2ccc3cccnc3c2n1)c1ccc[n+](Cc2ccccc2)c1 [Compound 2]
FXa Activity Inhibition >50% at 1 μM (human FXa): (−) (FXa Activity Inhibition >50% at 1 μM) | FXa Activity Inhibition >50% at 10 μM (human FXa): (+) (FXa Activity Inhibition >50% at 10 μM)

Cc1ccc(NC(=O)CCc2nnc3s/c(=C\c4cccc([N+](=O)[O-])c4)c(=O)n23)cc1 [Compound 3]
FXa Activity Inhibition >50% at 1 μM (human FXa): (−) (FXa Activity Inhibition >50% at 1 μM) | FXa Activity Inhibition >50% at 10 μM (human FXa): (+) (FXa Activity Inhibition >50% at 10 μM)

CC1=C(C(=O)CC(=O)C(=O)Nc2ccccc2)Sc2ccccc2N1 [Compound 5, 4-(3-methyl-4H-1,4-benzothiazin-2-yl)-2,4-dioxo-N-phenylbutanamide]
Emax at 0.01 µM (human FXa): 58% | inhibition at 1 µM (human FXa; at 1 μM, read-out: FXa inhibition): > 50% | IC50 (human FXa; dose response curves, human FXa): 2.02 nM | inhibition at 1 µM (human FXa; [3]): > 50% | inhibition at 10 µM (human FXa; [4]): > 50% | aPTT (human plasma [1]): prolonged only aPTT | PT (human plasma [2]): without effect on PT | tumor cell line growth inhibition (tumor cell line): inactive in all of them

CS(=O)(=O)N1C[C@H](C(=O)Nc2ccc(Cl)cc2)[C@@H](C(=O)Nc2ccc(-n3ccccc3=O)cc2F)C1 [Compound 8]
inhibition at 1 µM (human FXa; 1 µM, Table S1, read-out: FXa Activity Inhibition >50% at 1µM): < 50% | inhibition at 10 µM (human FXa; 10 µM, Table S1, read-out: FXa Activity Inhibition >50% at 10µM): < 50%

CCOc1ccc(NC(=O)CC2SC(=Nc3ccc(C)cc3)NC2=O)cc1 (stereo not shown) [Compound 9]
FXa Activity Inhibition >50% at 1 μM (human FXa): (−) (FXa Activity Inhibition >50% at 1 μM) | FXa Activity Inhibition >50% at 10 μM (human FXa): (+) (FXa Activity Inhibition >50% at 10 μM)

O=C(C[n+]1ccn(CC(OCc2ccc(Cl)cc2Cl)c2ccc(Cl)cc2Cl)c1)c1ccc(F)cc1.[Cl-] (stereo not shown) [Compound 10]
FXa Activity Inhibition >50% at 1 μM (human FXa): (−) (FXa Activity Inhibition >50% at 1 μM) | FXa Activity Inhibition >50% at 10 μM (human FXa): (+) (FXa Activity Inhibition >50% at 10 μM)

c1ccc(Cc2[nH]nc(-c3n[nH]c(Cc4ccccc4)c3-c3ccccc3)c2-c2ccccc2)cc1 [Compound 12]
FXa Activity Inhibition >50% at 1 μM (human FXa): (−) (FXa Activity Inhibition >50% at 1 μM) | FXa Activity Inhibition >50% at 10 μM (human FXa): (+) (FXa Activity Inhibition >50% at 10 μM)

Cc1cc(Cl)ccc1NC(=O)CC1SC(=NC(=O)c2ccccc2Cl)NC1=O (stereo not shown) [Compound 22]
FXa Activity Inhibition >50% at 1 μM (human FXa): (−) (FXa Activity Inhibition >50% at 1 μM) | FXa Activity Inhibition >50% at 10 μM (human FXa): (+) (FXa Activity Inhibition >50% at 10 μM)

O=C(CC(=O)C1=CNc2ccccc2S1)C(=O)Nc1ccc(Cl)cc1 [Compound 23]
FXa Activity Inhibition >50% at 1 μM (human FXa): (−) (FXa Activity Inhibition >50% at 1 μM) | FXa Activity Inhibition >50% at 10 μM (human FXa): (+) (FXa Activity Inhibition >50% at 10 μM)

NC(=O)N/N=C(/Cc1nc2ccc(C(=O)c3ccccc3)cc2[nH]c1=O)C(=O)Nc1ccc(Br)cc1 [Compound 24]
FXa Activity Inhibition >50% at 1 μM (human FXa): (−) (FXa Activity Inhibition >50% at 1 μM) | FXa Activity Inhibition >50% at 10 μM (human FXa): (+) (FXa Activity Inhibition >50% at 10 μM)

O=C(NC[C@H]1CN(c2ccc(N3CCOCC3=O)cc2)C(=O)O1)c1ccc(Cl)s1 [Rivaroxaban, reference compound]
Emax at 0.01 µM (human FXa): 81% | inhibition at 1 µM (human FXa; [3]): > 50% | inhibition at 10 µM (human FXa; [4]): > 50% | aPTT (human plasma [1]): simultaneously prolonged aPTT and PT in a dose-dependent manner | PT (human plasma [2]): simultaneously prolonged aPTT and PT in a dose-dependent manner
